Experimental findings from patent US20160297763A1, “Heteroaryl hydroxamic acid derivatives and their use in the treatment, amelioration or prevention of a viral disease” (priority 2011, published 2016) are described below.

For orientation: melting point means the temperature of the solid-liquid transition.

In the case of `O=C(NO)c1cc(N2CCOCC2)ccn1`, the melting point is 215 to 220 °C (dec.).

In the case of `O=C(NOCc1ccccc1)c1cc(N2CCCCC2)ccn1`, the melting point fell in the range of 135 to 140 °C.

With `Cc1c(Cc2ccc(Cl)cc2)sc2nc(N)[nH]c(=O)c12`, the melting point was in the range of 300 to 320 °C.

As for `CC(C)c1cc2c(=O)[nH]c(N)nc2s1`, the melting point lay in the range of 347 to 349 °C. For the compound `O=C(NO)c1ccc(N2CCCC2)cn1`, the melting point lay within 220 to 225 °C.

Compound `Cc1cccc(-c2ccc(C(=O)N(O)Cc3ccccc3)nc2)c1` showed a melting point of 139 to 140 °C.

As to `Cc1c(-c2c(F)ccc(Cl)c2F)sc2nc(N)[nH]c(=O)c12`, the melting point was in the range of 330 to 350 °C. In the case of `COc1cc(-c2sc3nc(N)[nH]c(=O)c3c2C)ccc1Cl` it was 312 to 322 °C; in that of `O=C(c1cc2ccccc2cn1)N(O)CCc1ccccc1`, 90 to 95 °C. In the case of `O=C(c1cc(N2CCCCC2)ccn1)N(O)CCCc1ccccc1` it was 125 to 130 °C; in that of `Cc1c(-c2ccc(Cl)c(C(=O)N(C)C)c2)sc2nc(N)[nH]c(=O)c12`, 300 to 320 °C.

In turn, `CC(C)c1cccc(-c2ccc(C(=O)NO)nc2)c1` showed a melting point of 130 to 135 °C.

Compound `CCONC(=O)c1cc(NCCCc2cccc(Cl)c2)ccn1` registered a melting point of 100 to 105 °C. In the case of `Cc1c(-c2ccc(F)c(C#N)c2)sc2nc(N)[nH]c(=O)c12` it was 330 to 350 °C. `Cc1c(-c2ccc(F)c(C#N)c2F)sc2nc(N)[nH]c(=O)c12`: the melting point lay within 360 to 380 °C. Next, `Cc1c(-c2ccc(F)c(C(F)(F)F)c2)sc2nc(N)[nH]c(=O)c12`: 310 to 330 °C; `Cl.O=C(NO)c1cc(NS(=O)(=O)Cc2cccc(F)c2)ccn1`: 195 to 200 °C; `Cc1c(-c2ccnc(Cl)c2F)sc2nc(N)[nH]c(=O)c12`: 330 to 350 °C. In the case of `Cc1c(-c2ccc(F)nc2F)sc2nc(N)[nH]c(=O)c12` it was 330 to 335 °C.

Compound `Cl.O=C(NO)c1cc(NS(=O)(=O)Cc2cc(Cl)cc(Cl)c2)ccn1` gave a melting point of 203 to 205 °C.

With `Cc1c(-c2ccccc2)sc2nc(NCCN(C)C)[nH]c(=O)c12`, the melting point is 199 to 201 °C.

`Cl.O=C(NO)c1cc(NS(=O)(=O)C(c2ccccc2)c2ccccc2)ccn1` returned a melting point of 162 to 168 °C. Consider `Cc1c(-c2ccccc2)sc2nc(Nc3ccccc3)[nH]c(=O)c12`, for which the melting point was 270 to 290 °C. Next, `O=C(Nc1ccnc(C(=O)NO)c1)c1ccccc1`: 175 to 184 °C. Compound `Nc1nc2sc(-c3ccccc3)c(Cl)c2c(=O)[nH]1` came in with a melting point of over 350 °C.

In turn, `Cl.O=C(c1cc(NS(=O)(=O)Cc2cc(Cl)cc(Cl)c2)ccn1)N(O)Cc1ccccc1` displayed a melting point of 189 to 194 °C. Next, `O=C(c1cc(-c2ccc(Cl)cc2)ccn1)N(O)Cc1ccccc1`: 190 to 195 °C; `CN(C)CCNC(=O)c1cccc(-c2ccnc(C(=O)N(O)Cc3ccccc3)c2)c1`: 65 to 70 °C; `CN(C)S(=O)(=O)c1cccc(-c2ccnc(C(=O)N(O)Cc3ccccc3)c2)c1`: 110 to 115 °C. Next, `O=C(c1cc(-c2cccc(CO)c2)ccn1)N(O)Cc1ccccc1`: 150 to 155 °C; `CN1CC=C(c2ccnc(C(=O)N(O)Cc3ccccc3)c2)CC1`: 135 to 155 °C; `CC(C)(C)OC(=O)N1CC=C(c2ccnc(C(=O)N(O)Cc3ccccc3)c2)CC1`: 125 °C. For the compound `O=C(c1cc(-c2ccccc2)ccn1)N(O)Cc1ccc(F)cc1`, the melting point is 135 to 140 °C. The compound `O=C(NO)c1ccc(-c2ccccc2)cn1` displayed a melting point of 175 to 180 °C. Next, `Cl.O=C(c1cc(N2CCC(F)(F)C2)ccn1)N(O)Cc1ccccc1`: 162 to 166 °C; `CC(C)(C)OC(=O)NC1CCN(c2ccnc(C(=O)N(O)Cc3ccccc3)c2)CC1`: 135 to 140 °C.
